Marks after values point to notes of the source that are not given here.
What was measured:
Assay type in all cases: cell-based
Human dendritic cells [1] = assay: Increase in cell size and granularity of DC (flow cytometry); settings: 100 μg polynucleotide, 48 hours
Method: (§1) Human dendritic cells were obtained from Clonetics (San Diego, Calif., USA) and were cultured in the medium recommended by Clonetics. DC were obtained from three different individuals (see Table 1). Major histocompatability typing was performed on each of these individuals and several of the HLA (human leukocyte antigens) types are shown.
DC were seeded in 1.0 ml at 1.0×10^5 cells/ml in 6-well flat-bottomed tissue culture plates for 48 hours with 100 μg of 6 base N1A, N1B, N2A, N2B, N3A, N3B, N4A, N4B, N5A, N5B, N6A, N6B, N7A or N7B polynucleotides. Cell size (FCS: forward side scatter) and granularity (S SC: side light scatter) were determined by flow cytometry using a FACSCalibur and analyzed using the CELLQuest Pro software (both from Becton-Dickinson, San Diego, Calif., USA). Percentage of DC showing a FCS>500 units and a SSC>400 units have been determined after treatment with 3-OH, 5-OH polynucleotides for DC isolated from three different individuals.

Human dendritic cells [2] = assay: Induction of IL-1beta production by DC (ELISA); settings: 100 μg, 48 hours
Method: as §1
DC were seeded in 1.0 ml at 1.0×10^5 cells/ml in 6-well flat-bottomed tissue culture plates for 48 hours with 100 μg of 6 base N1A, N1B, N2A, N2B, N3A, N3B, N4A, N4B, N5A, N5B, N6A, N6B, N7A or N7B polynucleotides. Production of IL-1beta was determined in 100 μl of culture supernatant using a commercial ELISA (BioSource, Camarillo, Calif., USA) after 48 hours of incubation. Results are expressed as the “fold” (x) increase in IL-1beta production by treated DC compared to control cells.

Human dendritic cells [3] = assay: Induction of IL-12 production by DC (ELISA); settings: 100 μg, 48 hours
Method: as §1
DC were seeded in 1.0 ml at 1.0×10^5 cells/ml in 6-well flat-bottomed tissue culture plates for 48 hours with 100 μg of 6 base N1A, N1B, N2A, N2B, N3A, N3B, N4A, N4B, N5A, N5B, N6A, N6B, N7A or N7B polynucleotides. Production of IL-12 was determined in 100 μl of culture supernatant using a commercial ELISA (BioSource) after 48 hours of incubation. Results are expressed as the “fold” (x) increase in IL-12 production by treated DC compared to control cells.

Human dendritic cells [4] = assay: Induction of IFN-gamma production by DC (ELISA); settings: 100 μg, 48 hours
Method: as §1
DC were seeded in 1.0 ml at 1.0×10^5 cells/ml in 6-well flat-bottomed tissue culture plates for 48 hours with 100 μg of6 base N1A, N1B, N2A, N2B, N3A, N3B, N4A, N4B, N5A, N5B, N6A, N6B, N7A or N7B polynucleotides. Production of IFN-gamma was determined in 100 μl of culture supernatant using a commercial ELISA (BioSource) after 48 hours of incubation. Results are expressed as the “fold” (x) increase in IFN-gamma production by treated DC compared to control cells.

Human dendritic cells [5] = assay: Induction of IL-12 by sequences plus GM-CSF (ELISA); settings: 100 μg, 48 hours
Method: as §1
DC from the individual B were seeded in 1.0 ml at 1.0×10^5 cells/ml in 6-well flat-bottomed tissue culture plates for 48 hours with 500 units of human recombinant GM-CSF (Clonetics) and 100 μg of 6 base polynucleotide N1A or polynucleotide N7A. Production of IL-12 was determined in 100 μl of culture supernatant using a commercial ELISA (BioSource) after 48 hours of incubation. Results are expressed as the “fold” (x) increase in IL-12 production by treated DC compared to control cells in absence or presence of recombinant GM-CSF.

Human dendritic cells [6] = assay: CD40 levels at the DC cell surface (flow cytometry); settings: 100 μg, 48 hours
Method: as §1
DC from individuals B and C were seeded in 1.0 ml at 1.0×10^5 cells/ml in 6-well flat-bottomed tissue culture plates for 48 hours with 100 μg of 6 base N1A, N1B, N2A, N2B, N3A, N3B, N4A, N4B, N5A, N5B, N6A, N6B, N7A or N7B polynucleotides. The level of CD40 at the cell surface was determined after 48 hours of incubation by flow cytometry (FACSCalibur system) using a FITC-conjugated monoclonal antibody directed to CD40 and analyzed by CELLQuest Pro (all from Becton Dickinson). Results are expressed as the percentage of CD40^hi DC following treatment. The term “CD40^hi” refers to a population of cells identified by flow cytometry as having higher than baseline expression of CD40.

Human dendritic cells [7] = assay: CD80 levels at the DC cell surface (flow cytometry); settings: 100 μg, 48 hours
Method: as §1
(§2) DC from individuals B and C were seeded in 1.0 ml at 1.0×10^5 cells/ml in 6-well flat-bottomed tissue culture plates for 48 hours with 100 μg of 6 base N1A, N1B, N2A, N2B, N3A, N3B, N4A, N4B, N5A, N5B, N6A, N6B, N7A or N7B polynucleotides. The level of CD80 at the cell surface was determined after 48 hours of incubation by flow cytometry using a FITC-conjugated monoclonal antibody directed to CD80 (Serotec, Oxford, U.K.) and analyzed by CELLQuest. Results are expressed as the percentage of CD80^hi DC following treatment.

Human dendritic cells [8] = assay: CD86 levels at the DC cell surface (flow cytometry); settings: 100 μg, 48 hours
Method: as §1
as §2, with “CD86” for “CD80”, “PE-conjugated” for “FITC-conjugated”, “CD86 (Serotec)” for “CD80 (Serotec, Oxford, U.K.)”, “CELLQuest Pro.” for “CELLQuest.”, “CD86^hi” for “CD80^hi”

Human dendritic cells [9] = assay: MHC-II levels at the DC cell surface (flow cytometry); settings: DC from individual B; 100 μg, 48 hours
Method: as §1
DC from individual B were seeded in 1.0 ml at 1.0×10^5 cells/ml in 6-well flat-bottomed tissue culture plates for 48 hours with 100 μg of 6 base N1A, N1B, N2A, N2B, N3A, N3B, N5A, N5B, N6A, N6B, N7A or N7B polynucleotides. The level of MHC II at the cell surface was determined after 48 hours of incubation by flow cytometry using a FITC-conjugated monoclonal antibody directed to MHC II (Serotec) and analyzed by CELLQuest Pro. Results are expressed as the percentage of MHC II^hi DC following treatment.

[10] = +GM-CSF (500 units human recombinant)

Substance	Percentage of DC showing a FCS > 500 units and a SSC > 400 units (Human dendritic cells [1]; DC isolated from individual A)	Percentage of DC showing a FCS > 500 units and a SSC > 400 units (Human dendritic cells [1]; DC isolated from individual C)	IL-1beta production by DC (fold increase compared to untreated DC) (Human dendritic cells [2]; DC isolated from individual A)	IL-1beta production by DC (fold increase compared to untreated DC) (Human dendritic cells [2]; DC isolated from individual C)	IL-12 production by DC (fold increase compared to untreated DC) (Human dendritic cells [3]; DC isolated from individual A)	IL-12 production by DC (fold increase compared to untreated DC) (Human dendritic cells [3]; DC isolated from individual C)	IFN-gamma production by DC (fold increase compared to untreated DC) (Human dendritic cells [4]; DC isolated from individual A)	IFN-gamma production by DC (fold increase compared to untreated DC) (Human dendritic cells [4]; DC isolated from individual C)	IL-12 production by DC from the individual B (fold increase compared to untreated DC) (Human dendritic cells [5]; [10])	IL-12 production by DC from the individual B (fold increase compared to untreated DC) (Human dendritic cells [5]; w/o GM-CSF)	The percentage of CD40^hi DC following treatment (Human dendritic cells [6]; DC from individual C)	The percentage of CD80^hi DC following treatment (Human dendritic cells [7]; DC from individual B)	The percentage of CD80^hi DC following treatment (Human dendritic cells [7]; DC from individual C)	The percentage of CD86^hi DC following treatment (Human dendritic cells [8]; DC from individual C)	The percentage of MHC-II^hi DC following treatment (Human dendritic cells [9])	other results
5′GTGTGT3′ [N1A]	6%	18%	1.0 fold	1.0 fold	15.9 fold	2.1 fold	0.8 fold	1.0 fold	15.3 fold	14.7 fold	24** %	45** %	41** %	14%	32** %	Percentage of DC showing a FCS > 500 units and a SSC > 400 units (Human dendritic cells [1]; DC isolated from individual B): 9%; IL-1beta production by DC (fold increase compared to untreated DC) (Human dendritic cells [2]; DC isolated from individual B): 1.2 fold; IL-12 production by DC (fold increase compared to untreated DC) (Human dendritic cells [3]; DC isolated from individual B): 17.8 fold; IFN-gamma production by DC (fold increase compared to untreated DC) (Human dendritic cells [4]; DC isolated from individual B): 1.0 fold; The percentage of CD40^hi DC following treatment (Human dendritic cells [6]; DC from individual B): 21%; The percentage of CD86^hi DC following treatment (Human dendritic cells [8]; DC from individual B): 10%
5′GGGCGG3′ [N7A] (DNA, all phosphodiester, methylation of C not given here)	8%	30%	1.1 fold	1.0 fold	1.0 fold	0.9 fold	1.0 fold	1.0 fold	11.7 fold	9.6 fold	23%	23** %	22** %	34%	21%	–

Reference: patent US7371734B2, “Oligonucleotide compositions and their use for the modulation of immune responses” (Bioniche Life Sciences Inc., priority 2002, dated 2008)
